For 2 compounds, IC50 and Inhibition results are on record in ChEMBL document CHEMBL1127996, “Structure and synthesis of clausenaquinone-a. A novel carbazolequinone alkaloid and bioactive principle from Clausena excavata” (Bioorg Med Chem Lett, 1994).

By IC50 is commonly meant the concentration that inhibits the measured activity by half. By Inhibition is commonly meant the share of the control response that was lost under treatment. Lower therefore signals a weak effect.

In one assay the test system is HCT-8. The experiment in a line: Cytotoxicity in HCT-8 cell line. Type of assay: functional, cell-based. Conditions: Homo sapiens.
The subject of a further assay is P388. Put plainly: Cytotoxicity in P-388 cell line. Conditions: Mus musculus. The assay is classed as functional, cell-based.
The species entered for the next assay is Oryctolagus cuniculus. The experiment in a line: Compound was tested for inhibition of platelet aggregation induced by arachidonic acid(100 uM) at a dose of 10 ug/mL in rabbit. Type of assay: functional.
In a further assay the test system is RPMI-7951. The experiment in a line: Cytotoxicity in RPMI-7951 cell line. The assay is classed as functional, cell-based. To be noted: Homo sapiens.
The test system of the next assay is TE-671. The experiment in a line: Cytotoxicity in TE671 cell line. The assay is classed as functional, cell-based. Conditions: Homo sapiens.

Converted amounts (≈) assume the structure as drawn.

As to `COC1=CC(=O)c2[nH]c3ccc(C)c(O)c3c2C1=O`, the IC50 in the assay on HCT-8 came to 1.82 µg/mL (≈ 7.07 µM); in the assay on P388, 2.24 µg/mL (≈ 8.71 µM); in the assay with RPMI-7951, 0.33 µg/mL (≈ 1.28 µM); in the assay on TE-671, 0.17 µg/mL (≈ 0.661 µM). For the same compound, the Inhibition in the assay filed under Oryctolagus cuniculus is reported as 100%.
For `COC1=CC(=O)c2[nH]c3cc(O)c(C)cc3c2C1=O`, the IC50 was found to be 0.92 µg/mL (≈ 3.58 µM) with HCT-8, 0.22 µg/mL (≈ 0.855 µM) in the assay with RPMI-7951 and 3.82 µg/mL (≈ 14.8 µM) in the assay with TE-671.
